From US8507464B2, “Phosphoramidate alkylator prodrugs” (Threshold Pharmaceuticals, Inc., priority 2005, dated 2013)
Read-outs that look alike come from different tables or passages of the source.

Tests used:
HT29 cells = assay: Antiproliferation assay - oxygen dependence; type: cell-based; conditions: Homo sapiens
Text: . […] The calculated IC50 values (μM) are tabulated in Table Y1 (H460 cells) or Table Y2 (HT29 cells) below.

H460 cells = assay: Cell cycle distribution (flow cytometry); type: cell-based, human
PC3 cells = assay: Cell cycle distribution (flow cytometry); type: cell-based, human
Method: Cells ([…], PC3 and HT29) were seeded at a density of 1.0×10^6 cells/3 ml medium per 60 mm dish. After 24 h attachment, cells were exposed to Compound 25 at the indicated concentrations for 2 h under either normoxia (air) or anoxia (nitrogen). Cells were washed twice, and incubated for an additional 22 h in fresh medium. Cells were trypsinized, centrifuged, and fixed in 75% ethanol at least for 24 h at −20° C. Cell cycle distribution was determined using Guava Cell Cycle reagent (Guava, Hayward, Calif.) by flow cytometry (Guava, Hayward, Calif.).

HCT116 cells = assay: Multilayered cell culture (MCC) assay, inhibition of BrdU incorporation; type: cell-based; conditions: for IC50: Homo sapiens
Method: MCCs were incubated with oxygenated media (20% O2 & 5% O2) or hypoxic media (approximately 0% O2) and the test compound was exposed from one side (exposed surface, normoxic side) while the other side was temporarily closed off (far side, hypoxic side). When MCC's are incubated in media at 20% O2 or 5% O2 a gradient in oxygen develops from the surface exposed to the media towards the far surface of the culture. The furthest 50 μm of tissue becomes depleted of oxygen. The extent of O2 depletion is greater with 5% than the 20% O2 gassed media; incubation with 5% O2 reflects the in vivo situation most closely. Incubating MCCs with media at 0% O2 models perfusion limited hypoxia, where tumor blood vessels become completely depleted of oxygen and test compound must penetrate extensive distances to reach all cells. This situation therefore poses a greater barrier to drug penetration, if binding of activated drug acts to limit its penetration.
MCC based experiments were carried out with media gassed with 0, 5 or 20% O2 for 45 minutes prior to and during incubation with the test compound. HCT116 cells were grown to a thickness of 150 μm on a solid support and one side of the culture was clamped off to develop diffusion limited hypoxia. […] The cultures were incubated for a second hour in fresh media at 20% O2 and removed from the apparatus and returned to a normal growth chamber, where media flows over both sides of the MCC. Cultures were incubated for 24 hours prior to BrdUrd labeling and subsequent cryosectioning. BrdUrd labeling on the exposed and far sides of the MCC were analyzed using immunohistochemical staining, microscope imaging and computer image analysis to assess the effect of Compound 25 on cell proliferation.

[1] = system: mouse (MLM) liver microsomal proteins; type: in vitro ADME; conditions: Table 1, first study, 5 μM
H460 xenograft = H460 xenograft in nude mice, ip bolus or ip infusion with Cisplatin (Example 54); type: in vivo, mouse; conditions: alone or in combination with CDDP
Method: Example 54 describes efficacy of Compound 25 via an ip bolus injection or ip infusion alone or in combination with Cisplatin in the H460 xenograft mouse model. Female Nu-Foxn1^nu homozygous nu/nu mice (purchased from Charles River, Cambridge, Mass.), 6 weeks of age, were allowed to acclimatize for at least three days, and handled under pathogen-free conditions. Human H460 cells were obtained from the American Type Culture Collection. The cell lines were cultured and harvested as described in Example 47 and inoculated at 3×10^6 cells/animal in the peritoneal subcutaneous space. When the tumors grew to an average volume of 100 mm^3 (day 8), each group of mice (ten per group) was administered, for three weeks, as tabulated in the table below: Compound 25 (formulated as a 15 mg/ml saline solution, administration route—i.p., administrated 2 h before CDDP on the days the combination therapy is scheduled) and CDDP in saline, IV.
The body weight and tumor volume was determined as described in Example 47.

NCI-H460 cells = assay: Clonogenic assay - oxygen dependence; conditions: Homo sapiens
ACHN cells = assay: Antiproliferation assay (Alamar Blue), anoxia vs air; conditions: Homo sapiens, 2 h

Cn1c(COP(=O)(NCCBr)NCCBr)cnc1[N+](=O)[O-] [Compound 25]
IC50 (HT29 cells; HT-29, read-out: IC50 in HT29 cells, 0.6% O2): 25 µM
IC50 (HT29 cells; HT-29, read-out: IC50 in HT29 cells, Air): > 100 µM
IC50 (HT29 cells; HT-29, read-out: IC50 in HT29 cells, N2): 2 µM
Cell cycle G0/G1 (H460 cells; 0.005 μM, Air): 38
Cell cycle G2/M (H460 cells; 0.005 μM, Air): 42
Cell cycle S (H460 cells; 0.005 μM, Air): 18
Cell cycle G0/G1 (H460 cells; 0.005 μM, Nitrogen): 50
Cell cycle G2/M (H460 cells; 0.005 μM, Nitrogen): 38
Cell cycle S (H460 cells; 0.005 μM, Nitrogen): 12
Cell cycle G0/G1 (H460 cells; 0.05 μM, Air): 58
Cell cycle G2/M (H460 cells; 0.05 μM, Air): 28
Cell cycle S (H460 cells; 0.05 μM, Air): 11
Cell cycle G0/G1 (H460 cells; 0.05 μM, Nitrogen): 30
Cell cycle G2/M (H460 cells; 0.05 μM, Nitrogen): 59
Cell cycle S (H460 cells; 0.05 μM, Nitrogen): 7
Cell cycle G0/G1 (H460 cells; 0.5 μM, Air): 58
Cell cycle G2/M (H460 cells; 0.5 μM, Air): 28
Cell cycle S (H460 cells; 0.5 μM, Air): 11
Cell cycle G0/G1 (H460 cells; 0.5 μM, Nitrogen): 23
Cell cycle G2/M (H460 cells; 0.5 μM, Nitrogen): 40
Cell cycle S (H460 cells; 0.5 μM, Nitrogen): 31
Cell cycle G0/G1 (H460 cells; 5 μM, Air): 42
Cell cycle G2/M (H460 cells; 5 μM, Air): 59
Cell cycle S (H460 cells; 5 μM, Air): 6
Cell cycle G0/G1 (H460 cells; 5 μM, Nitrogen): 47
Cell cycle G2/M (H460 cells; 5 μM, Nitrogen): 17
Cell cycle S (H460 cells; 5 μM, Nitrogen): 15
Cell cycle G0/G1 (H460 cells; 50 μM, Air): 14
Cell cycle G2/M (H460 cells; 50 μM, Air): 65
Cell cycle S (H460 cells; 50 μM, Air): 19
Cell cycle G0/G1 (H460 cells; 50 μM, Nitrogen): 33
Cell cycle G2/M (H460 cells; 50 μM, Nitrogen): 11
Cell cycle S (H460 cells; 50 μM, Nitrogen): 14
Cell cycle G0/G1 (PC3 cells; 0.0005 μM, Air): 55
Cell cycle G2/M (PC3 cells; 0.0005 μM, Air): 32
Cell cycle S (PC3 cells; 0.0005 μM, Air): 12
Cell cycle G0/G1 (PC3 cells; 0.0005 μM, Nitrogen): 59
Cell cycle G2/M (PC3 cells; 0.0005 μM, Nitrogen): 31
Cell cycle S (PC3 cells; 0.0005 μM, Nitrogen): 10
Cell cycle G0/G1 (PC3 cells; 0.005 μM, Air): 52
Cell cycle G2/M (PC3 cells; 0.005 μM, Air): 34
Cell cycle S (PC3 cells; 0.005 μM, Air): 13
Cell cycle G0/G1 (PC3 cells; 0.005 μM, Nitrogen): 56
Cell cycle G2/M (PC3 cells; 0.005 μM, Nitrogen): 32
Cell cycle S (PC3 cells; 0.005 μM, Nitrogen): 11
Cell cycle G0/G1 (PC3 cells; 0.05 μM, Air): 55
Cell cycle G2/M (PC3 cells; 0.05 μM, Air): 33
Cell cycle S (PC3 cells; 0.05 μM, Air): 12
Cell cycle G0/G1 (PC3 cells; 0.05 μM, Nitrogen): 43
Cell cycle G2/M (PC3 cells; 0.05 μM, Nitrogen): 44
Cell cycle S (PC3 cells; 0.05 μM, Nitrogen): 12
Cell cycle G0/G1 (PC3 cells; 0.5 μM, Air): 55
Cell cycle G2/M (PC3 cells; 0.5 μM, Air): 32
Cell cycle S (PC3 cells; 0.5 μM, Air): 13
Cell cycle G0/G1 (PC3 cells; 0.5 μM, Nitrogen): 21
Cell cycle G2/M (PC3 cells; 0.5 μM, Nitrogen): 46
Cell cycle S (PC3 cells; 0.5 μM, Nitrogen): 33
Cell cycle G0/G1 (PC3 cells; 5 μM, Air): 55
Cell cycle G2/M (PC3 cells; 5 μM, Air): 32
Cell cycle S (PC3 cells; 5 μM, Air): 12
Cell cycle G0/G1 (PC3 cells; 5 μM, Nitrogen): 35
Cell cycle G2/M (PC3 cells; 5 μM, Nitrogen): 26
Cell cycle S (PC3 cells; 5 μM, Nitrogen): 38
fold reduction in exposure to the hypoxic side under 0% O2 relative to 5% O2 (HCT116 cells; 0% O2 vs 5% O2): Approximately 3 fold
fold more effective at inhibiting BrdU incorporation on the hypoxic side compared to the normoxic side (HCT116 cells; 5% O2): 10 fold
fold less compound required on the far (hypoxic) side compared to the exposed (normoxic) side (HCT116 cells; 20% O2): 5 fold
IC50 (HCT116 cells; HCT-116, read-out: IC50 (BrdU), Hypoxic side, 5% O2): 0.7 µM
IC50 (HCT116 cells; HCT-116, read-out: IC50 (BrdU), Hypoxic side, 20% O2): 2.6 µM
IC50 (HCT116 cells; HCT-116, read-out: IC50 (BrdU), Normoxic side, 5% O2): 8 µM
IC50 (HCT116 cells; HCT-116, read-out: IC50 (BrdU), Normoxic side, 20% O2): > 10 µM
IC50 (HCT116 cells; HCT-116, read-out: IC50 (inhibit BrdU incorporation by 50%), Hypoxic side, 0% O2): ~1.1 µM
IC50 (HCT116 cells; HCT-116, read-out: IC50 (BrdU), Normoxic side, 0% O2): ~1.7 µM
Metabolic stability (% at 30 min) MLM [1]: 89%
efficacy of continuous application (H460 xenograft): efficacious
IC90 (NCI-H460 cells; NCI-H460, read-out: IC90 H460 0.1% O2): 0.4 µM
IC90 (NCI-H460 cells; NCI-H460, read-out: IC90 H460 0.6% O2): 5 µM
IC90 (NCI-H460 cells; NCI-H460, read-out: IC90 H460 Air): 30 µM
IC90 (NCI-H460 cells; NCI-H460, read-out: IC90 H460 N2): 0.1 µM
IC50 (ACHN cells; read-out: IC50 ACHN Air): 62 µM
IC50 (ACHN cells; read-out: IC50 ACHN Anoxia): 0.2 µM
